The text below walks through data of PMC10027881 (Scientific Reports, 2023).

The subject of data set [1] is GST. Nature of the data set: GST expression by western blotting. Type of data set: cell-based, human. The protocol:
(§1) Caco2 and hEL cells were cultured in a 100 mm^2 cell culture dish with MEM containing 10% FBS at 37 °C in a humidified atmosphere of 5% CO2. To determine the effects of the treatment conditions, hEL cells were incubated with various concentrations of B(a)P and G-Rg3 in MEM for 48 h. The cells were subjected to further analysis or harvested to prepare cell-free extracts.
(§2) hEL cells were washed using ice-cold PBS and then lysed using radioimmunoprecipitation assay buffer containing a protease inhibitor and phosphatase inhibitors. After protein quantification using a total protein assay kit, 30 µg of protein from each sample was separated by 12% SDS‒PAGE and transferred electrophoretically onto the PVDF membrane. The membranes were blocked using 5% skim milk and then incubated with primary antibodies overnight at 4 °C. After incubation with horseradish peroxidase-conjugated secondary antibody, enhanced chemiluminescent reagent was added to visualize the binding signals. The intensity of each protein band was quantified using ImageJ software.
In general terms: A western blot detects proteins with antibodies after separation by electrophoresis.

In data set [2] the test system is GST. The data set is described as follows: GST activity assay kit. The data set is classed as cell-based, human. The protocol:
hEL cells were seeded in 96-well plates at a density of 1 × 10^4 cells per well and treated with 10 µM B(a)P in the absence or presence of 10 µM G-Rg3 for 48 h. GST activity was measured using a commercial GST activity assay kit according to the manufacturer’s protocols. The relative activation of GST was measured by using a microplate reader for absorbance at 450 nm.

In data set [3] the test system is Nrf2. The data set is described as follows: Nrf2 expression by western blotting. The data set is classed as cell-based, human. The protocol:
as §1, §2

In data set [4] the test system is Caco-2 cells. Conditions: cited from earlier work.
The nature of data set [5]: Side effects in the model mice: body weight, plasma ALT and Cr. The data set is classed as in vivo, A/J mice. The settings on record: G-Rg3 treatment groups vs control group. The protocol:
(§3) All experiments were performed in accordance with relevant guidelines and regulations, and the study was conducted in accordance with Animal Research: Reporting of in vivo Experiments (ARRIVE) guidelines. […] One week later, the mice were randomly divided into control and different treatment groups with 15 mice per group, and treatment was performed once every day via oral gavage. Following 20 weeks of treatment, the animals were sacrificed by CO2 asphyxiation. The lungs were collected and fixed for 24 h. Quantification of the surface tumor count and individual tumor size on each lung was performed under a dissecting microscope. The tumor volume (V) estimation was calculated using the following expression: V (mm^3) = 4/3πr^3, where r is the tumor diameter. The net sum of all the volumes of tumors in a mouse lung was the total tumor volume, with the mean total tumor volume per group represented the tumor load. Whole blood and intestine samples were collected and stored at − 80 °C for UPLC‒MS/MS assays. Serum was collected and analyzed for alanine transaminase (ALT) and serum creatinine (Cr) levels by an automatic biochemical analyzer to evaluate liver and kidney function.

Data set [6] concerns lung tumors induced by B(a)P in A/J mice. The data set is described as follows: B(a)P-induced lung tumorigenesis in A/J mice, tumor load. The settings on record: G-Rg3 study, 20-weeks treatment; control 1.63 ± 0.40. The data set is classed as in vivo. The protocol: The mice were sacrificed by CO2 asphyxiation after the 20th week of red ginseng treatment.
as §3

Data set [7] in a line: UPLC-MS/MS levels of ginsenosides in blood/plasma and intestine after 20-weeks treatment. The data set is classed as in vivo, A/J mice. Conditions: for concentration at 20 weeks: A/J, mouse. The protocol: All experiments were approved by the laboratory animal ethics committee of Tongji Medical College, Huazhong University of Science and Technology (approval no. 2019; file no. 4587TH). All experiments were performed in accordance with relevant guidelines and regulations, and the study was conducted in accordance with Animal Research: Reporting of in vivo Experiments (ARRIVE) guidelines. Eight-week-old A/J mice were given an initial intraperitoneal injection of B(a)P in tricaprylin (100 mg/kg in 0.2 mL). One week later, the mice were randomly divided into control and different treatment groups with 15 mice per group, and treatment was performed once every day via oral gavage. Following 20 weeks of treatment, the animals were sacrificed by CO2 asphyxiation. The lungs were collected and fixed for 24 h. Quantification of the surface tumor count and individual tumor size on each lung was performed under a dissecting microscope. The tumor volume (V) estimation was calculated using the following expression: V (mm^3) = 4/3πr^3, where r is the tumor diameter. The net sum of all the volumes of tumors in a mouse lung was the total tumor volume, with the mean total tumor volume per group represented the tumor load. Whole blood and intestine samples were collected and stored at − 80 °C for UPLC‒MS/MS assays. Serum was collected and analyzed for alanine transaminase (ALT) and serum creatinine (Cr) levels by an automatic biochemical analyzer to evaluate liver and kidney function.
As described above, the collected samples were retrieved from cold storage, thawed, weighed, and placed in a test tube. To this, 0.5 µM phloridzin (internal standard) in 0.8 mL of methanol solution was added. Then, the tissue was homogenized using a Tissue-Tearor and the homogenate was subsequently transferred into a 1.5 mL microcentrifuge tube. The mixture was centrifuged for 15 min at 15,500 rpm. Following the removal of […] of the supernatant, nitrogen–based drying was performed. Two hundred microliters of methanol was used for reconstitution. Blood was collected and processed on the same lines and used as a reference for all measurements.

Data set [8] deals with Caco-2 monolayer. The data set is described as follows: Transcellular transport across the Caco-2 monolayer. The data set is classed as in vitro ADME. The settings on record: for Pb-a compared with Pa-b: no verapamil. The protocol:
This assay was performed in accordance with an earlier study.
The cells were subjected to washing using HBSS and preincubation at 37 °C following 3 weeks of culture. […] Collection of 100 µL medium was performed at the indicated times (0, 15, 30, 45, 60, 90, and 120 min), and 100 µL HBSS was added to replenish this volume. These samples were stored at […] until UPLC‒MS/MS assays. The expression Papp = dQ/(dT × A × C0) was utilized to quantify the apparent unidirectional permeability for both the apical and basolateral sides and vice versa (Pa-b and Pb-a, respectively); dQ/dT represents the concentration change, A (0.6 cm^2) represents the monolayer surface area, and C0 represents the initial donor concentration. The efflux ratio was calculated as Pb-a/Pa-b, which represents the degree of efflux transport of the study drug.
On the technique in general: Passage across Caco-2 layers is used to estimate intestinal permeability.

Data set [9] deals with hEL cells. The data set is described as follows: Cell viability (MTS) assay. The data set is classed as cell-based, human. The settings on record: compound alone, 0-20 µM, 48 h.
Method: Caco2 and hEL cells were cultured in a 100 mm^2 cell culture dish with MEM containing 10% FBS at 37 °C in a humidified atmosphere of 5% CO2. […] The cells were subjected to further analysis or harvested to prepare cell-free extracts.
A commercially available MTS assay kit was used, and cells were subjected to the standard protocol followed by measurement at 490 nm wavelength with a microplate reader.
Data set [10] has as its system BPDE-DNA adducts in hEL cells. The data set is described as follows: BPDE-DNA adduct formation (ELISA kit). The data set is classed as cell-based, human. The settings on record: for BPDE-DNA adduct level: 10 µM B(a)P cotreatment with 10 µM G-Rg3, 48 h; for BPDE-DNA adducts: B(a)P and G-Rg3 cotreatment. The protocol:
After treatment for 48 h, DNA was extracted from hEL cells using the QIAamp DNA Mini Kit according to the manufacturer’s protocol. BPDE-DNA adduct formation was detected using the BPDE-DNA adduct ELISA kit. The relative BPDE-DNA adduct levels were measured using a microplate reader for absorbance at 450 nm.

The test system of data set [11] is rat pulmonary epithelial cells. Also on record: method as in PMID 17357179. Conditions: in the presence of verapamil; cited from earlier work.
The conditions of data set [12]: cited from earlier work.
The mark [13] stands for this setting: verapamil 50 or 100 µM vs no verapamil.
The mark [14] stands for this setting: 10 µM B(a)P cotreatment with 10 µM G-Rg3.
The mark [15] stands for this setting: 10 µM B(a)P cotreatment with 10 µM G-Rg3, 48 h.

Where two headings read alike, the source gives them in different places.

As to `c1ccc2c(c1)cc1ccc3cccc4ccc2c1c34` [B(a)P, benzo(a)pyrene, reference compound], the GST expression in data set [1] (10 µM B(a)P alone, G-Rg3r groups) was found to be 59.7 ± 8.2%; in [1] (10 µM B(a)P alone, G-Rg3s groups), 39 ± 4.5%. This compound yielded a GST activity in data set [2] (10 µM B(a)P only, 48 h) of 35.7 ± 7.8%. For the same compound, the “level of Nrf2” value in data set [3] (B(a)P only, G-Rg3r experiment) turned out to be 51.3 ± 6.8%; in [3] (B(a)P only, G-Rg3s experiment) it was 41 ± 9.8%.
For the compound `CC(C)=CCC[C@](C)(O[C@@H]1O[C@H](CO)[C@@H](O)[C@H](O)[C@H]1O)[C@H]1CC[C@]2(C)[C@@H]1[C@H](O)C[C@@H]1[C@@]3(C)CC[C@H](O)C(C)(C)[C@@H]3CC[C@]12C` [Compound K], the “intracellular levels spiked by a factor of” value in [4] is listed as 40.
Regarding `CC(C)=CCC[C@](C)(O)[C@H]1CC[C@]2(C)[C@@H]1[C@H](O)C[C@@H]1[C@@]3(C)CC[C@H](O[C@@H]4O[C@H](CO)[C@@H](O)[C@H](O)[C@H]4O[C@@H]4O[C@H](CO)[C@@H](O)[C@H](O)[C@H]4O)C(C)(C)[C@@H]3CC[C@]12C` [G-Rg3, ginsenoside Rg3], in data set [5], the “body weight loss or clinical signs of toxicity” value is on record as “No significant body weight loss or clinical signs of toxicity”.
In turn, `CC(C)=CCCC(C)(O)C1CCC2(C)C1C(O)CC1C3(C)CCC(OC4OC(CO)C(O)C(O)C4OC4OC(CO)C(O)C(O)C4O)C(C)(C)C3CCC12C` (stereo not shown) [G-Rg3r, ginsenoside Rg3] yielded a tumor load in data set [6] of 0.75 ± 0.29 mm^3. Besides, the concentration at 20 weeks stood at 1350 ± 130 ng/g in [7] (intestine, oral, with verapamil coadministered (dose not stated), read-out: level in the intestine); 530 ± 80 ng/g in data set [7] (intestine, oral, read-out: level in the intestine); 1170 ± 470 nM in data set [7] (plasma, oral, with verapamil coadministered (dose not stated), read-out: plasma level); 440 ± 320 nM in data set [7] (plasma, oral, read-out: plasma level). Besides, the “Pa-b (apical to basolateral)” value in [8] (10 µM G-Rg3, 50 µmol/L verapamil) is given as 0.73 ± 0.06; in data set [8] (10 µM G-Rg3, 100 µmol/L verapamil), 1.14 ± 0.09; in [8] (10 µM G-Rg3, no verapamil), 0.38 ± 0.06. Further, in data set [8], the “Pb-a compared with Pa-b” value was “significantly higher”. In addition, in data set [8] (setting [13]), the “average Pb-a after verapamil treatment” value is “significant decrease”. Further, the “cytotoxicity on hEL cells” value in data set [9] is “nontoxic”. Besides, the BPDE-DNA adduct level in data set [10] turned out to be 1.87 ± 0.33. Besides, the BPDE-DNA adducts worked out at 1.47 ± 0.21 in data set [10] (control siRNA group) and 3.0 ± 0.21 in data set [10] (siNrf2 group). The GST expression in data set [1] (setting [14]) came out at 103.7 ± 15.5%. Also, the GST activity in [2] (setting [15]) is recorded as 96.3 ± 6.6%. For the same compound, the “level of Nrf2” value in [3] (B(a)P-G-Rg3 cotreatment) was found to be 106 ± 9.5%.
As for `CC(C)=CCCC(C)(O)C1CCC2(C)C1C(O)CC1C3(C)CCC(OC4OC(CO)C(O)C(O)C4OC4OC(CO)C(O)C(O)C4O)C(C)(C)C3CCC12C` (stereo not shown) [G-Rg3s, ginsenoside Rg3], in data set [6], the tumor load turned out to be 0.81 ± 0.30 mm^3. In addition, the “plasma and intestine levels when verapamil was coadministered, in words” value in data set [7] (after 20-weeks treatment) was “followed a similar pattern”. Further, the “Pb-a compared with Pa-b” value in data set [8] is “significantly higher”. Further, in data set [8] (setting [13]), the “average Pb-a after verapamil treatment” value is listed as “significant decrease” and the “transport (Pa-b) after verapamil treatment, in words” value is “followed a similar pattern”. In [9], the “cytotoxicity on hEL cells” value is given as “nontoxic”. Besides, in data set [10], the BPDE-DNA adduct level is 1.93 ± 0.48. Further, the BPDE-DNA adducts in data set [10] (control siRNA group) was found to be 1.8 ± 0.32. The BPDE-DNA adducts in [10] (siNrf2 group) is listed as 3.6 ± 0.45. Further, the GST expression in data set [1] (setting [14]) is given as 110 ± 11.1%. Besides, in data set [2] (setting [15]), the GST activity was 92.3 ± 6.5%. Also, the “level of Nrf2” value in data set [3] (B(a)P-G-Rg3 cotreatment) worked out at 117 ± 6.2%.
Consider `CC(C)=CCC[C@](C)(O[C@@H]1O[C@H](CO)[C@@H](O)[C@H](O)[C@H]1O)[C@H]1CC[C@]2(C)[C@@H]1[C@H](O)C[C@@H]1[C@@]3(C)CC[C@H](O)C(C)(C)[C@@H]3[C@@H](O[C@@H]3O[C@H](CO)[C@@H](O)[C@H](O)[C@H]3O)C[C@]12C` [Rg1], for which the “levels in rat pulmonary epithelial cells” value in data set [11] was “increased”.
For the compound `CC(C)=CC/C=C(\C)[C@H]1CC[C@]2(C)[C@@H]1[C@H](O)C[C@@H]1[C@@]3(C)CC[C@H](O[C@@H]4O[C@H](CO)[C@@H](O)[C@H](O)[C@H]4O[C@@H]4O[C@H](CO)[C@@H](O)[C@H](O)[C@H]4O)C(C)(C)[C@@H]3CC[C@]12C` [Rg5], the “ginsenoside in the blood” value in data set [7] (after 20-weeks KRGB treatment, oral) is 0.0063 ± 0.0005 µg/mL.
In the case of `CC(C)=CCC[C@](C)(O)[C@H]1CC[C@]2(C)[C@@H]1[C@H](O)C[C@@H]1[C@@]3(C)CC[C@H](O[C@@H]4O[C@H](CO)[C@@H](O)[C@H](O)[C@H]4O)C(C)(C)[C@@H]3CC[C@]12C` [ginsenoside Rh2], the bioavailability (as a rule, the share of a dose that reaches the circulation, judged against a reference dose that is usually intravenous) in data set [12] (initial value, without cyclosporine A) is listed as 1%; in data set [12] (with cyclosporine A treatment), “more than 30%”.
